Assay results: publication PMC5218480 (PLoS ONE, 2017)

Test system: MV-4-11 cells
Experiment: Gene expression microarray analysis (Affymetrix PrimeView) and GSEA
Assay type: cell-based, human
Design: RFU PODN (11730768_x_at) / Fold change /veh PODN (11730768_x_at) / RFU LINC00158 (11744669_a_at) / Fold change /veh LINC00158 (11744669_a_at) / RFU DUSP10 (11751237_a_at) / Fold change /veh DUSP10 (11751237_a_at) / RFU ID3 (11757404_x_at) / Fold change /veh ID3 (11757404_x_at) / RFU PLEKHG5 (11737974_s_at) / Fold change /veh PLEKHG5 (11737974_s_at) / RFU LRRC4B (11730491_at) / Fold change /veh LRRC4B (11730491_at) / RFU GIMAP4 (11747438_a_at) / Fold change /veh GIMAP4 (11747438_a_at) / RFU KRT8 (11758183_x_at) / Fold change /veh KRT8 (11758183_x_at) / RFU CNN1 (11734310_a_at) / Fold change /veh CNN1 (11734310_a_at) / RFU VPS37D (11726825_at) / Fold change /veh VPS37D (11726825_at) / RFU C10orf10 (11716522_x_at) / Fold change /veh C10orf10 (11716522_x_at) / RFU KIR2DL2 /// KIR2DL4 /// KIR2DL5A /// KIR2DL5B /// KIR2DS1 /// KIR2DS2 /// KIR2DS3 /// KIR2DS4 /// KIR3DL3 /// KIR3DL3 /// KIR3DS1 (11738374_at) / Fold change /veh KIR2DL2 /// KIR2DL4 /// KIR2DL5A /// KIR2DL5B /// KIR2DS1 /// KIR2DS2 /// KIR2DS3 /// KIR2DS4 /// KIR3DL3 /// KIR3DL3 /// KIR3DS1 (11738374_at) / RFU C1QL1 (11718748_at) / Fold change /veh C1QL1 (11718748_at) / RFU TMPRSS4 (11747572_a_at) / Fold change /veh TMPRSS4 (11747572_a_at) / RFU HAMP (11756126_x_at) / Fold change /veh HAMP (11756126_x_at) / RFU RNFT2 (11725882_a_at) / Fold change /veh RNFT2 (11725882_a_at) / RFU NR4A2 (11747474_a_at) / Fold change /veh NR4A2 (11747474_a_at) / RFU ABCC12 (11746883_a_at) / Fold change /veh ABCC12 (11746883_a_at) / RFU TMEM136 (11760407_x_at) / Fold change /veh TMEM136 (11760407_x_at) / RFU CLDN22 /// WWC2 (11732394_at) / Fold change /veh CLDN22 /// WWC2 (11732394_at) / RFU HLA-DPB1 (11760878_x_at) / Fold change /veh HLA-DPB1 (11760878_x_at) / RFU SPINT1 (11716480_a_at) / Fold change /veh SPINT1 (11716480_a_at) / RFU GAP43 (11754022_s_at) / Fold change /veh GAP43 (11754022_s_at) / RFU A4GNT (11735810_at) / Fold change /veh A4GNT (11735810_at) / RFU PRB3 (11715151_x_at) / Fold change /veh PRB3 (11715151_x_at) / RFU TUBB4B (11761932_at) / Fold change /veh TUBB4B (11761932_at) / RFU CAPN14 (11732068_a_at) / Fold change /veh CAPN14 (11732068_a_at) / RFU TMCC2 (11721928_a_at) / Fold change /veh TMCC2 (11721928_a_at) / RFU IRGQ (11745062_a_at) / Fold change /veh IRGQ (11745062_a_at) / RFU FAM174B (11720279_a_at) / Fold change /veh FAM174B (11720279_a_at) / RFU TMPRSS4 (11748680_a_at) / Fold change /veh TMPRSS4 (11748680_a_at) / RFU FAM212B (11763350_a_at) / Fold change /veh FAM212B (11763350_a_at) / RFU PLEKHG5 (11743358_a_at) / Fold change /veh PLEKHG5 (11743358_a_at) / RFU ZSCAN30 (11745921_a_at) / Fold change /veh ZSCAN30 (11745921_a_at) / RFU CMKLR1 (11741424_a_at) / Fold change /veh CMKLR1 (11741424_a_at) / RFU LOC101060620 /// MAPK8IP1 (11723275_at) / Fold change /veh LOC101060620 /// MAPK8IP1 (11723275_at) / RFU SPTSSB (11747773_x_at) / Fold change /veh SPTSSB (11747773_x_at) / RFU PRSS12 (11739890_at) / Fold change /veh PRSS12 (11739890_at) / RFU BIN1 (11741810_x_at) / Fold change /veh BIN1 (11741810_x_at) / RFU WNT11 (11732464_a_at) / Fold change /veh WNT11 (11732464_a_at) / RFU C10orf10 (11716521_a_at) / Fold change /veh C10orf10 (11716521_a_at) / RFU C5orf56 (11738089_at) / Fold change /veh C5orf56 (11738089_at) / RFU CYB561 (11721691_x_at) / Fold change /veh CYB561 (11721691_x_at) / RFU ANKRD19P (11752326_a_at) / Fold change /veh ANKRD19P (11752326_a_at) / RFU OR2T12 /// OR2T33 /// OR2T8 (11738714_s_at) / Fold change /veh OR2T12 /// OR2T33 /// OR2T8 (11738714_s_at) / RFU VCAN (11748164_a_at) / Fold change /veh VCAN (11748164_a_at) / RFU JSRP1 (11732532_at) / Fold change /veh JSRP1 (11732532_at) / RFU KRTAP10-11 (11738290_x_at) / Fold change /veh KRTAP10-11 (11738290_x_at) / RFU MYO3A (11730013_a_at) / Fold change /veh MYO3A (11730013_a_at) / RFU EBF3 (11725865_a_at) / Fold change /veh EBF3 (11725865_a_at) / RFU CAMK2N1 (11719241_x_at) / Fold change /veh CAMK2N1 (11719241_x_at) / RFU C5orf56 (11738088_a_at) / Fold change /veh C5orf56 (11738088_a_at) / RFU OLFML3 (11715873_a_at) / Fold change /veh OLFML3 (11715873_a_at) / RFU LOC100653217 /// NTM (11731650_a_at) / Fold change /veh LOC100653217 /// NTM (11731650_a_at) / RFU MAPK11 (11762145_a_at) / Fold change /veh MAPK11 (11762145_a_at) / RFU FIZ1 (11724087_x_at) / Fold change /veh FIZ1 (11724087_x_at) / RFU OASL (11726364_x_at) / Fold change /veh OASL (11726364_x_at) / RFU SOX15 (11748057_x_at) / Fold change /veh SOX15 (11748057_x_at) / RFU CD79A (11719716_a_at) / Fold change /veh CD79A (11719716_a_at) / RFU HIST1H1D (11736915_at) / Fold change /veh HIST1H1D (11736915_at) / RFU CASKIN2 (11723855_a_at) / Fold change /veh CASKIN2 (11723855_a_at) / RFU LOC730098 (11760151_x_at) / Fold change /veh LOC730098 (11760151_x_at) / RFU OR4N2 (11742367_at) / Fold change /veh OR4N2 (11742367_at) / RFU PRRT2 (11749266_a_at) / Fold change /veh PRRT2 (11749266_a_at) / RFU SNX32 (11753110_a_at) / Fold change /veh SNX32 (11753110_a_at) / RFU CDHR5 (11726645_a_at) / Fold change /veh CDHR5 (11726645_a_at) / RFU RCAN1 (11760418_a_at) / Fold change /veh RCAN1 (11760418_a_at) / RFU FAM167A (11723789_a_at) / Fold change /veh FAM167A (11723789_a_at) / RFU FAM26E (11764081_at) / Fold change /veh FAM26E (11764081_at) / RFU ISYNA1 (11749810_s_at) / Fold change /veh ISYNA1 (11749810_s_at) / RFU ACY1 (11761880_at) / Fold change /veh ACY1 (11761880_at) / RFU 11764098_at / Fold change /veh 11764098_at / RFU SAMD14 (11745864_x_at) / Fold change /veh SAMD14 (11745864_x_at) / RFU NPB (11741838_a_at) / Fold change /veh NPB (11741838_a_at) / RFU TMPRSS6 (11731388_a_at) / Fold change /veh TMPRSS6 (11731388_a_at) / RFU KRTAP10-2 (11738614_at) / Fold change /veh KRTAP10-2 (11738614_at) / RFU ARHGAP8 /// PRR5-ARHGAP8 (11727945_x_at) / Fold change /veh ARHGAP8 /// PRR5-ARHGAP8 (11727945_x_at) / RFU KRTAP5-7 /// NADSYN1 (11734609_at) / Fold change /veh KRTAP5-7 /// NADSYN1 (11734609_at) / RFU RASL12 (11751679_a_at) / Fold change /veh RASL12 (11751679_a_at) / RFU CDKN2B (11736163_a_at) / Fold change /veh CDKN2B (11736163_a_at) / RFU PRF1 (11729649_at) / Fold change /veh PRF1 (11729649_at) / RFU, ZNF638 /// ZNF638-IT1 / Fold change vs veh, ZNF638 /// ZNF638-IT1 / RFU, PANK3 / Fold change vs veh, PANK3 / RFU, SH3YL1 / Fold change vs veh, SH3YL1 / RFU, ZEB2 / Fold change vs veh, ZEB2 / RFU, NRIP1 / Fold change vs veh, NRIP1 / RFU, PTTG1IP / Fold change vs veh, PTTG1IP / RFU, CAPN2 / Fold change vs veh, CAPN2 / RFU, MED14 / Fold change vs veh, MED14 / RFU, SNORA58 / Fold change vs veh, SNORA58 / RFU, C1orf63 / Fold change vs veh, C1orf63 / RFU, LRRFIP1 / Fold change vs veh, LRRFIP1 / RFU, NDUFAF7 / Fold change vs veh, NDUFAF7 / RFU, SLC12A2 / Fold change vs veh, SLC12A2 / RFU, IBTK / Fold change vs veh, IBTK / RFU, ESF1 / Fold change vs veh, ESF1 / Fold change vs veh, TMEM50B / RFU, TAOK1 / Fold change vs veh, TAOK1 / RFU, ACBD3 / Fold change vs veh, ACBD3 / RFU, TMA16 / Fold change vs veh, TMA16 / RFU, RWDD3 / Fold change vs veh, RWDD3 / RFU, BCAT1 / Fold change vs veh, BCAT1 / RFU, EDEM3 / Fold change vs veh, EDEM3 / RFU, TMEM33 / Fold change vs veh, TMEM33 / RFU, WDR75 / Fold change vs veh, WDR75 / RFU, AHCTF1 / Fold change vs veh, AHCTF1 / RFU, TFRC / Fold change vs veh, TFRC / RFU, ZDHHC17 / Fold change vs veh, ZDHHC17 / RFU, NOM1 / Fold change vs veh, NOM1 / RFU, ARL8B / Fold change vs veh, ARL8B / RFU, ZBTB11 / Fold change vs veh, ZBTB11 / RFU, TAMM41 / Fold change vs veh, TAMM41 / RFU, KIAA1704 /// LOC100996395 / Fold change vs veh, KIAA1704 /// LOC100996395 / RFU, ING1 / Fold change vs veh, ING1 / RFU, TRMT61B / Fold change vs veh, TRMT61B / RFU, FUBP3 / Fold change vs veh, FUBP3 / RFU, TP53 / Fold change vs veh, TP53 / RFU, TNKS2 / Fold change vs veh, TNKS2 / RFU, ZFP14 / Fold change vs veh, ZFP14 / RFU, ACTR2 / Fold change vs veh, ACTR2 / RFU, PPP3R1 / Fold change vs veh, PPP3R1 / RFU, PIK3R1 / Fold change vs veh, PIK3R1 / RFU, HNRNPA1 / Fold change vs veh, HNRNPA1 / RFU, RNF170 / Fold change vs veh, RNF170 / RFU, ZNF28 / Fold change vs veh, ZNF28 / RFU, RNGTT / Fold change vs veh, RNGTT / RFU, OGT / Fold change vs veh, OGT / RFU, BRD1 / Fold change vs veh, BRD1 / RFU, MARS / Fold change vs veh, MARS / RFU, ZNF655 / Fold change vs veh, ZNF655 / RFU, FAHD1 / Fold change vs veh, FAHD1 / RFU, BDP1 / Fold change vs veh, BDP1 / RFU, LRRCC1 / Fold change vs veh, LRRCC1 / RFU, ARID1A / Fold change vs veh, ARID1A / RFU, ZNF146 / Fold change vs veh, ZNF146 / RFU, ZNF330 / Fold change vs veh, ZNF330 / RFU, GPN3 / Fold change vs veh, GPN3 / RFU, C9orf123 / Fold change vs veh, C9orf123 / RFU, N4BP2L2 / Fold change vs veh, N4BP2L2 / RFU, ARFIP1 / Fold change vs veh, ARFIP1 / RFU, FAM179B / Fold change vs veh, FAM179B / RFU, BCL10 / Fold change vs veh, BCL10 / RFU, UHRF1BP1L / Fold change vs veh, UHRF1BP1L / RFU, BET1 / Fold change vs veh, BET1 / RFU, CNOT2 / Fold change vs veh, CNOT2 / RFU, ZNF268 / Fold change vs veh, ZNF268 / Fold change vs veh, ZNF507 / RFU, DGCR2 / Fold change vs veh, DGCR2 / RFU, WDSUB1 / Fold change vs veh, WDSUB1 / Fold change vs veh, HSP90B1 /// MIR3652 / RFU, ADSS / Fold change vs veh, ADSS / RFU, GK / Fold change vs veh, GK / RFU, ZNF148 / Fold change vs veh, ZNF148 / RFU, TAF9 / Fold change vs veh, TAF9 / RFU, SLC1A5 / Fold change vs veh, SLC1A5 / RFU, SLMO2 / Fold change vs veh, SLMO2 / RFU, ABCC4 / Fold change vs veh, ABCC4 / RFU, LOC101060439 /// RAP1B / Fold change vs veh, LOC101060439 /// RAP1B / RFU, RFX7 / Fold change vs veh, RFX7 / RFU, GTPBP10 / Fold change vs veh, GTPBP10 / RFU, CNEP1R1 / Fold change vs veh, CNEP1R1 / RFU, BIVM-ERCC5 /// ERCC5 / Fold change vs veh, BIVM-ERCC5 /// ERCC5 / RFU, ILF3 / Fold change vs veh, ILF3 / RFU 11762660_at / Fold change /veh 11762660_at / RFU VCAN (11757783_s_at) / Fold change /veh VCAN (11757783_s_at) / RFU DDX43 (11728927_at) / Fold change /veh DDX43 (11728927_at) / RFU KRT8 (11758188_x_at) / Fold change /veh KRT8 (11758188_x_at) / RFU NKD1 (11759106_at) / Fold change /veh NKD1 (11759106_at) / RFU SRD5A1 (11742802_a_at) / Fold change /veh SRD5A1 (11742802_a_at) / RFU TPSAB1 /// TPSB2 (11721975_s_at) / Fold change /veh TPSAB1 /// TPSB2 (11721975_s_at) / RFU GSTM3 (11746129_a_at) / Fold change /veh GSTM3 (11746129_a_at) / RFU IL23R (11737362_x_at) / Fold change /veh IL23R (11737362_x_at) / RFU TMEM51 (11727254_a_at) / Fold change /veh TMEM51 (11727254_a_at) / RFU PIWIL2 (11732686_x_at) / Fold change /veh PIWIL2 (11732686_x_at) / RFU ORM1 (11744905_x_at) / Fold change /veh ORM1 (11744905_x_at) / RFU CCDC152 (11743942_at) / Fold change /veh CCDC152 (11743942_at) / RFU ECM1 (11717891_a_at) / Fold change /veh ECM1 (11717891_a_at) / RFU IL23R (11748794_a_at) / Fold change /veh IL23R (11748794_a_at) / RFU TNFAIP8L3 (11732012_x_at) / Fold change /veh TNFAIP8L3 (11732012_x_at) / RFU MBOAT4 (11741988_at) / Fold change /veh MBOAT4 (11741988_at) / RFU 11764193_at / Fold change /veh 11764193_at / RFU TMEM53 (11763286_at) / Fold change /veh TMEM53 (11763286_at) / RFU MAGEB2 (11727129_at) / Fold change /veh MAGEB2 (11727129_at) / RFU TMEM200A (11744735_a_at) / Fold change /veh TMEM200A (11744735_a_at) / RFU CCDC152 (11751479_a_at) / Fold change /veh CCDC152 (11751479_a_at) / RFU FAM211A (11726209_a_at) / Fold change /veh FAM211A (11726209_a_at) / RFU RGS16 (11746705_a_at) / Fold change /veh RGS16 (11746705_a_at) / RFU VCAN (11755009_s_at) / Fold change /veh VCAN (11755009_s_at) / RFU RHOB (11743442_s_at) / Fold change /veh RHOB (11743442_s_at) / RFU RGS16 (11720943_a_at) / Fold change /veh RGS16 (11720943_a_at) / RFU RGS16 (11720944_at) / Fold change /veh RGS16 (11720944_at) / RFU, VPS4B / Fold change vs veh, VPS4B / RFU, CREB1 / Fold change vs veh, CREB1 / RFU, DNAJC13 / Fold change vs veh, DNAJC13 / RFU, GNAQ / Fold change vs veh, GNAQ / RFU, CDK5R1 / Fold change vs veh, CDK5R1 / RFU, ZRANB3 / Fold change vs veh, ZRANB3 / RFU, CUL4A / Fold change vs veh, CUL4A / RFU, CCNY / Fold change vs veh, CCNY / RFU, UFL1 / Fold change vs veh, UFL1 / RFU, COG3 / Fold change vs veh, COG3 / RFU, DIAPH2 / Fold change vs veh, DIAPH2 / RFU, SKA2 / Fold change vs veh, SKA2 / RFU, AFF3 / Fold change vs veh, AFF3 / RFU, LMF1 / Fold change vs veh, LMF1 / RFU, IPO11 / Fold change vs veh, IPO11 / RFU, DFFB / Fold change vs veh, DFFB / RFU, FOXP1 / Fold change vs veh, FOXP1 / RFU, CARD8 / Fold change vs veh, CARD8 / RFU, STRN3 / Fold change vs veh, STRN3 / RFU, ADK / Fold change vs veh, ADK / RFU, RASSF2 / Fold change vs veh, RASSF2 / RFU, WIPF1 / Fold change vs veh, WIPF1 / RFU, LARP1B / Fold change vs veh, LARP1B / RFU, RASA1 / Fold change vs veh, RASA1 / RFU, RB1 / Fold change vs veh, RB1 / RFU, PPFIA1 / Fold change vs veh, PPFIA1 / RFU, MAT2A / Fold change vs veh, MAT2A / RFU, CCT5 / Fold change vs veh, CCT5 / RFU, WDR92 / Fold change vs veh, WDR92 / RFU, CUX1 / Fold change vs veh, CUX1 / RFU, TTC7A / Fold change vs veh, TTC7A / RFU, TMEM135 / Fold change vs veh, TMEM135 / RFU, DEPTOR / Fold change vs veh, DEPTOR / RFU, CPM / Fold change vs veh, CPM / RFU, DNAJB6 / Fold change vs veh, DNAJB6 / RFU, CACNA2D3 / Fold change vs veh, CACNA2D3 / RFU, DTX4 / Fold change vs veh, DTX4 / RFU, TFCP2 / Fold change vs veh, TFCP2 / RFU, GMCL1 /// GMCL1P1 / Fold change vs veh, GMCL1 /// GMCL1P1 / RFU, AEBP2 / Fold change vs veh, AEBP2 / RFU, SNHG1 /// SNORD22 /// SNORD25 /// SNORD26 /// SNORD27 /// SNORD28 /// SNORD29 /// SNORD31 / Fold change vs veh, SNHG1 /// SNORD22 /// SNORD25 /// SNORD26 /// SNORD27 /// SNORD28 /// SNORD29 /// SNORD31 / Fold change (Aza/veh), C12orf56 (ProbeSet 11735607_a_at) / Fold change (ACY-1035/veh), C12orf56 (ProbeSet 11735607_a_at) / Fold change (Aza/veh), FGFR1OP (ProbeSet 11751329_s_at) / Fold change (ACY-1035/veh), FGFR1OP (ProbeSet 11751329_s_at) / Fold change (Aza/veh), VPS36 (ProbeSet 11739960_a_at) / Fold change (ACY-1035/veh), VPS36 (ProbeSet 11739960_a_at) / RFU SYPL1 (11715823_x_at) / Fold change /veh SYPL1 (11715823_x_at) / RFU IGFBP7 (11715501_s_at) / Fold change /veh IGFBP7 (11715501_s_at) / RFU REEP3 (11722064_at) / Fold change /veh REEP3 (11722064_at) / RFU IGLL1 (11728026_x_at) / Fold change /veh IGLL1 (11728026_x_at): dose or concentration left out as unconfirmed
Conditions: ProbeSet 11745789_a_at; LIST D

SMILES: Nc1ncn([C@@H]2O[C@H](CO)[C@@H](O)[C@H]2O)c(=O)n1 [azacitidine]
- Fold change vs veh, TMEM135: 0.56
